Here are results for one compound from ChEMBL document CHEMBL1153761, “Bisnicalaterine A, a vobasine-vobasine bisindole alkaloid from Hunteria zeylanica” (J Nat Prod, 2009).

In brackets after ≈: the same amount, converted by molar mass.

Common to all, as to type: functional, cell-based
In one test the test system is HL-60. Description: Cytotoxicity against human HL60 cells after 48 hrs by MTT assay. The conditions noted are these: HL-60, 48 h. For orientation: Tetrazolium assays rely on reduction of a dye to a coloured formazan, in cell work by metabolically active cells.
A further test has as its system RPMI-8226. The test can be described thus: Cytotoxicity against human RPMI8226 cells after 48 hrs by MTT assay. The conditions noted are these: RPMI-8226, 48 h.
For another test, the system named is NCI-H226. The test can be described thus: Cytotoxicity against human NCI-H226 cells after 48 hrs by MTT assay. The conditions noted are these: NCI-H226, 48 h.
The next test relates to HCT-116. The test can be described thus: Cytotoxicity against human HCT116 cells after 48 hrs by MTT assay. The conditions noted are these: HCT-116, 48 h.
The test system of a further test is MCF7. The test can be described thus: Cytotoxicity against human MCF7 cells after 48 hrs by MTT assay. The conditions noted are these: MCF7, 48 h.

By IC50 is commonly meant the concentration needed to halve the response being measured. Take `C/C=C1/CN(C)[C@H]2Cc3c([nH]c4ccccc34)[C@H](n3c4c(c5ccccc53)C[C@H]3[C@@H](C(=O)OC)[C@H](C[C@H]4O)/C(=C\C)CN3C)C[C@H]1[C@@H]2C(=O)OC` [BISNICALATERINE A]: the IC50 in the test on HL-60 was 16.2 µg/mL (≈ 23.4 µM); in the test with RPMI-8226, 31.3 µg/mL (≈ 45.3 µM); in the test with NCI-H226, 28.1 µg/mL (≈ 40.7 µM); in the test with HCT-116, 21.9 µg/mL (≈ 31.7 µM); in the test on MCF7 it was 38 µg/mL (≈ 55 µM).
